Source: patent publication US20070298994A1, “Use of 3-Mercapto-3-Methyl-Hexan-1-Ol for Use as Malodour Standard” (SYMRISE GMBH & CO. KG, priority 2004, published 2007)
Where two headings read alike, the source gives them in different places.

Legend:
[1] = Raw material test against sweat odour (masking of malodour standard, assessor panel)
[2] = Application test in the formulations (smelling strips, assessor panel); design: Malodour reduction value: scale not given here; details: smelling strip, 1 μl 3-mercapto-3-methyl-hexan-1-ol solution (0.001% in DPG), at least 12 experts
Description: Mixtures A-C and the fragrances of Table 4 were incorporated in the formulations of Examples 3-12 as perfume oil. […] The coding smelling strips were evaluated sensorily by a group of assessors of at least 12 experts.

[3] = Odour threshold value in air on a dynamic olfactometer; details: for odour threshold value in air: dynamic olfactometer, mean of 24 measured values (8 trained assessors, three passes), refers to the pure substance
Description: The odour threshold values in air were determined for the substance (E)-3-methyl-2-hexenoic acid also occurring in sweat and 3-mercapto-3-methyl-hexan-1-ol recently found in sweat.
The odour threshold value denotes the concentration of an olfactorily perceptible substance in air at which this can be distinguished from the odourless ambient air.
Determination is carried out on a dynamic olfactometer. A sample of 20 μl each of dilute solutions of the components is placed in a container with 7 l air. The samples in the olfactometer are diluted clearly below the odour threshold by defined addition of odourless air. In the olfactometer, the concentrations in the sample air are increased little by little until all the assessors have characterised a perception. A group of 8 trained assessors determines the concentration of the samples to be distinguished in odour from air on three passes each so that the mean value of 24 measured values leads to the respective concentrations. The (E)-3-methyl-2-hexenoic acid is measured at 1% and the 3-mercapto-3-methyl-hexan-1-ol at 0.1% in odourless dipropylene glycol. The different dilutions were taken into account for calculating the threshold values. The threshold values refer to the pure substances. The threshold value of the (E)-3-methyl-2-hexenoic acid was determined at 15.1 ng/l air. The threshold value for the 3-mercapto-3-methyl-hexan-1-ol was determined at 0.015 ng/l air. All assessors evaluated the threshold value of 3-mercapto-3-methyl-hexan-1-ol lower than (E)-3-methyl-2-hexenoic acid in all passes.

[4] = Table 2 (raw materials without adequate malodour-reducing action), 1 μl fragrance + 5 μl 3-mercapto-3-methyl-hexan-1-ol (0.1% in DPG) in 7 l air, 15 h, scale 1 to 9, standard = 6
[5] = Table 4, tests with the mixtures (Example 2), according to the raw material test method
[6] = in EXAMPLE 3: ROLL-ON DEODORANT GEL
[7] = in EXAMPLE 6: GEL AIR FRESHENER
[8] = in EXAMPLE 7: AEROSOL DEODORANT
[9] = in EXAMPLE 9: HAIR SETTING LOTION
[10] = Table 1, 1 μl fragrance + 5 μl 3-mercapto-3-methyl-hexan-1-ol (0.1% in DPG) in 7 l air, 15 h at approx. 20° C., scale 1 to 9, malodour standard mixture = 6, mean of at least 8 assessors
[11] = Table 3 (adequate malodour-reducing action but significant increase in intensity), 1 μl fragrance + 5 μl 3-mercapto-3-methyl-hexan-1-ol (0.1% in DPG) in 7 l air, 15 h, scale 1 to 9, standard = 6

CCOC(C)=O [ETHYL ACETATE]
Increase in intensity [1, 4]: −0.9 | Malodour reduction value [1, 4]: 1.1 | Increase in intensity [1, 5]: −1.1 | Malodour reduction value [1, 5]: 1.1 | Increase in intensity [2, 6]: −0.1 | Malodour reduction value [2, 6]: 0.5 | Increase in intensity ([2]; in EXAMPLE 4: W/O CREAM): 0.0 | Malodour reduction value ([2]; in EXAMPLE 4: W/O CREAM): 1.0 | Increase in intensity ([2]; in EXAMPLE 5: O/W LOTION): 0.5 | Malodour reduction value ([2]; in EXAMPLE 5: O/W LOTION): 0.5 | Increase in intensity [2, 7]: 0.5 | Malodour reduction value [2, 7]: 0.8 | Increase in intensity [2, 8]: −0.5 | Malodour reduction value [2, 8]: 1.1 | Increase in intensity ([2]; in EXAMPLE 8: FOOT CREAM): 0.5 | Malodour reduction value ([2]; in EXAMPLE 8: FOOT CREAM): 0.8 | Increase in intensity [2, 9]: −0.5 | Malodour reduction value [2, 9]: 1.2 | Increase in intensity ([2]; in EXAMPLE 10: CARE MASK): 0.8 | Malodour reduction value ([2]; in EXAMPLE 10: CARE MASK): 1.2 | Increase in intensity ([2]; in EXAMPLE 11: SKIN OIL): −0.5 | Malodour reduction value ([2]; in EXAMPLE 11: SKIN OIL): 0.3 | Increase in intensity ([2]; in EXAMPLE 12: OINTMENT): −0.6 | Malodour reduction value ([2]; in EXAMPLE 12: OINTMENT): 0.0

CCC/C(C)=C/C(=O)O [(E)-3-methyl-2-hexenoic acid, reference compound]
odour threshold value in air [3]: 15.1 ng/l air

CCCC(C)(S)CCO (stereo not drawn) [3-mercapto-3-methyl-hexan-1-ol]
odour threshold value in air [3]: 0.015 ng/l air | factor by which threshold value is lower than that of (E)-3-methyl-2-hexenoic acid ([3]; odour threshold values in air): 1000

CC(=O)OCCC(C)C [ACETIC ACID-3-METHYLBUTYL ESTER]
Increase In intensity [1, 10]: 1.3 | Odour reduction value [1, 10]: 5.8

CC(C)[C@H]1CC[C@H](O)CC1 [TRANS-4-ISOPROPYL CYCLOHEXANOL]
Increase In intensity [1, 10]: 1.0 | Odour reduction value [1, 10]: 4.1

CC1=CC(C)C(C(=O)C(C)(C)C)CC1 (stereo not drawn)
Increase In intensity [1, 10]: 1.4 | Odour reduction value [1, 10]: 3.5

COC1CCCCCCCCCCC1 [CYCLODODECYL METHYL ETHER]
Increase In intensity [1, 10]: 0.7 | Odour reduction value [1, 10]: 3.1

CC1=C[C@H](C)[C@H](C=O)CC1 (relative stereo)
Increase In intensity [1, 10]: −1.3 | Odour reduction value [1, 10]: 4.4

c1ccc2c(c1)CC1COCOC21 (stereo not drawn) [1,4A,9,9A-TETRAHYDRO-2,4-DIOXA-FLUORENE]
Increase In intensity [1, 10]: 1.0 | Odour reduction value [1, 10]: 4.3

CCCCCCCC1CCC(=O)O1 (stereo not drawn) [5-HEPTYL-2-DIHYDROFURANONE]
Increase In intensity [1]: 1.1 | Odour reduction value [1]: 3.8

CCC(C)(O)CCCC(C)C (stereo not drawn) [TETRAHYDROLINALOOL, reference compound]
Increase in intensity [1, 11]: 2.3 | Malodour-reduction value [1, 11]: 3.0

CC(=O)OC(C)(C)C1CC=C(C)CC1 (stereo not drawn) [ACETIC ACID-ALPHA-TERPINYL ESTER]
Increase In intensity [1, 10]: −0.3 | Odour reduction value [1, 10]: 4.0
